Test results published in patent publication US9895362B2, “Pharmaceutical composition combining an anticonvulsant and a derivate of nicotinic acid” (Farmacéuticos Rayere, S.A., priority 2014, dated 2018).

Tests used:
[1] = tested on: mechanical allodynia (injury of the sciatic nerve); experiment: Experimental model of neuropathic pain due to injury (ligation and cutting) of the sciatic nerve; mechanical allodynia by Von Frey filaments assay; isobolographic analysis; type: in vivo, mice; conditions: for DE30: drugs administered individually, intraperitoneal, linear regression, AUC at 4 hours; for dose dependence of antiallodynic effect: intraperitoneal administration
Description: To evaluate the analgesic efficacy of the CLG combination in neuropathic pain due to injury to the nerve, an experimental model of neuropathic pain due to ligation and cutting of sciatic nerve in mice was used. The procedure used was based on that described by I. Decosterd and C. J. Woolf (2000), which consists of isolating, tying and injuring the sciatic nerve of the mouse, followed by evaluation of the mechanical allodynia resulting from damage to the nerve.
The surgery consisted of making an incision of approximately 1 cm in the direction proximal longitudinal to the knee and afterwards opening the skin by blunt dissection and separating the muscular layer by dissection lateral to the blood vessel near the femur. Then the right sciatic nerve was exposed under the muscles, separating them with care to display the sciatic nerve in the region where it branches from the sural nerve. Only the sciatic nerve was sutured with No. 6 thread, trying not to damage the sural nerve in any way. A tight surgical knot was made on the sciatic nerve by cutting below the suture with a pair of tweezers, then stitching the muscle layer and the skin by surgical knots. […] Consequently, the antiallodynic effect of the drugs is evaluated from the second or third day after the surgery. For validation of the model, as a surgery control group, a sham surgery was used, in which the sciatic nerve is only exposed surgically, without ligation or cutting, and then the muscle tissue and skin is stitched.
In all groups, the evaluation of mechanical allodynia with the application of Von Frey filaments was done in the same manner as described above for the model of pain due to diabetic neuropathy. The response thresholds in both legs, ipsilateral (right) and contralateral (left), were evaluated.
For systemic administration of the drugs individually and in combinations in the mechanical allodynia model, different groups were used to characterize the dose-response curve by administering the drugs on the third day after the surgery. The doses for gabapentin were 50, 100 and 150 mg/kg, and for lysine clonixinate they were 75, 150 and 300 mg/kg. Afterwards, as described below, other groups were administered different doses of the CLG combination. Both gabapentin and lysine clonixinate and their combinations were dissolved in a 0.9% saline solution. Groups of animals were used with an experimental n of 6 to 8. A 0.9% saline solution was administered by intraperitoneal route to an experimental control group.
To evaluate the net antiallodynic effect, the area under the curve of the time courses evaluated at 4 hours post treatment, both of the ipsilateral and the contralateral leg, was obtained using the trapezoid rule. […] FIG. 10 represents the dose-antiallodynic effect curves, corresponding to gabapentin and lysine clonixinate administered individually. By means of linear regression, the DE30 values of the drugs administered individually were obtained.
In the same way as was done in the previous model, isobolographic analysis was used to evaluate the effect of the CLG combination in relation to the effect of each drug individually. From the respective DE30 of the individual drugs, combinations of gabapentin and CL in fixed proportions were evaluated.

[2] = patients treated with gabapentin; cited from earlier work
[3] = tested on: neurological profile (behavior, reflexes, convulsions, motor coordination); experiment: Neurological profile after subchronic administration (14 days); type: in vivo, mice; conditions: for value of all the parameters of the neurological profile: 14 days of treatment, at these doses; for Behavior: Exploratory Activity / Behavior: Flabbiness / Behavior: Irritability / Behavior: State of Alert / Behavior: Straightening of Tail / Behavior: Vocalization / Convulsions: Clonic / Convulsions: Gait Movements / Convulsions: Jumping Movement / Convulsions: Tonic / Motor Coordination: Abnormal Gait / Motor Coordination: Paralysis / Motor Coordination: Running in Circles / Motor Coordination: Staggering Gait / Reflexes: Corneal: i.p. daily 14 days, gabapentin 31 mg/kg, lysine clonixinate 150 mg/kg, or both
Experimental: The motor activity and biochemical profile evaluation data were evaluated by an analysis of variance (ANOVA), followed by a Dunnett test. The neurological profile data were evaluated by grading, with 0=null, […] and 3=significant. […] This administration was done consecutively every 24 hours. After 14 days of exposure, toxicological tests were done. A daily evaluation was simultaneously done of the neurological profile, since one critical aspect in all experimental models of nervous system pathologies is evaluation of the final neurological prognosis. In the case of subchronic administration of medication, evaluation of the final functional deficit is a valuable tool. Therefore, after receiving a daily dose for 14 days, the mice underwent an evaluation of the neurological profile of the experimental animals. This evaluation included parameters such as behavior, reflexes, convulsions and motor coordination. Each parameter was graded on a scale of 0=null, 1=slight, 2=moderate and 3=considerable.

[4] = tested on: mechanical allodynia (diabetic neuropathy induced with streptozotocin); experiment: Model of pain due to diabetic neuropathy induced with streptozotocin; mechanical allodynia by Von Frey filaments assay; isobolographic analysis; type: in vivo, male BALB/c mice; conditions: for DE30 (effective dose that provides an analgesic effect of 30%): drugs administered individually, antiallodynic effect from AUC at 4 hours post-treatment; for dose-antiallodynic effect curve: gabapentin 50, 100, 150 mg/kg, lysine clonixinate 75, 150, 300 mg/kg, individually
Experimental: In this example, a model of neuropathic pain induced by streptozotocin in male BALB/c mice 6-8 weeks of age is used. The procedure used was based on one described and widely validated (Ahlgren, S. C. and Levine, J. D., 1993), which consists in an intraperitoneal injection of streptozotocin (45 mg/kg) in 0.2 mL of saline solution. […] The blood glucose levels were evaluated in 4 groups of mice with the following characteristics: 1) without treatment (basal), 2) with treatment in fasting, 3) after 1 day of treatment and 4) after 4 days of treatment. As a diabetes parameter, a plasma glucose level≧200 mg/dL was taken.
Allodynia was determined by mechanical stimulation through progressively […] application of different forces with Von Frey filaments of different caliber. The mice were placed in plastic cylinders on a wire mesh table for 15 minutes, ensuring that they were calm, and subsequently the filaments were progressively applied to the side of the leg. The filament of 0.02 g of force was the first to be applied to the left leg, five times during a total period of 30 seconds (approximately 2 seconds per stimulus), the reaction of the mouse being determined after each application. The response observed is the withdrawal or licking of the leg. If three of the five stimuli are observed, the reaction is considered positive and the mechanical threshold of the response is established.
Different groups were used to characterize the dose-response curve of the analgesics, administering the drugs after inducing of diabetes. The doses for gabapentin were 50, 100 and 150 mg/kg, and for lysine clonixinate they were 75, 150 and 300 mg/kg. Groups of animals were used with n≧8. A 0.9% saline solution was administered by intraperitoneal route as a control of each experimental group.
For determination of antiallodynic efficacy, the mean threshold in each group was plotted as a function of time after the administration of the drugs individually or in combination, and the area below the curve (ABC) was obtained using the trapezoid rule. The percentage increase of the threshold was calculated using the following equation: […]
To evaluate the net antiallodynic effect, the area under the curve of the time courses evaluated at 4 hours post-treatment was obtained.
To evaluate the effect of the CLG combination in relation to the effect of each drug individually, isobolographic analysis was used. […] From the respective DE30 of the individual drugs, combinations of gabapentin and CL in fixed proportions were made and evaluated.
Subsequently, a dose-response curve was plotted after coadministration of the two drugs. […] The data represent the mean and the standard error of 8 mice.
Once the DE30 values, both the theoretical and experimental, were obtained, a statistical comparison of the additive theoretical point and the experimental DE30 value was done using a Student's t-test. The type of interaction between the two drugs was established by constructing an isobologram as follows. For each of the individual agents, the dose that produces 30% of antiallodynic effect (DE30) was plotted in rectangular coordinates (x, y). The line that connects these two points is termed “isobolic” or the “additivity line,” and on this line are all the possible combinations of the two drugs that produce only an additivity or summation effect.
To describe the magnitude of the interaction, the interaction index value (γ), which is a quantitative measure of the interaction between two drugs, was calculated: […]

neuropathic pain = experiment: Overall conclusions from both mouse models of neuropathic pain; type: in vivo, mice; conditions: lysine clonixinate alone, in the studies performed
Description: In the present study, we used two mouse models to study neuropathic pain: the model of diabetic neuropathy induced by streptozotocin and the model of neuropathic pain induced by a physical injury to the sciatic nerve.

SMILES	DE30 [1] [mg/kg]	dose dependence of antiallodynic effect [1]	value of all the parameters of the neurological profile [3]	Behavior: Exploratory Activity [3]	Behavior: Flabbiness [3]	Behavior: Irritability [3]	Behavior: State of Alert [3]	Behavior: Straightening of Tail [3]	Behavior: Vocalization [3]	Convulsions: Clonic [3]	Convulsions: Gait Movements [3]	Convulsions: Jumping Movement [3]	Convulsions: Tonic [3]	Motor Coordination: Abnormal Gait [3]	Motor Coordination: Paralysis [3]	Motor Coordination: Running in Circles [3]	Motor Coordination: Staggering Gait [3]	Reflexes: Corneal [3]	DE30 (effective dose that provides an analgesic effect of 30%) ([4]; diabetic neuropathy model) [mg/kg]	dose-antiallodynic effect curve [4]	other results
NCC1(CC(=O)O)CCCCC1 [gabapentin, 2-[1-(aminomethyl)cyclohexyl] acetic acid]	83.82	dose dependent increase	0	0	0	0	0	0	0	0	0	0	0	0	0	0	0	0	39.62 ± 1.35	dose-dependent increase	patients showing drowsiness, dizziness, ataxia, headache and fatigue [2]: more than 10%; DE30 (effective dose that provides an analgesic effect of 30%) ([4]; diabetic neuropathy model, listed as Gabapentin): 39.62 mg/kg
Cc1c(Cl)cccc1Nc1ncccc1C(=O)O.NCCCC[C@H](N)C(=O)O [lysine clonixinate, lysine salt of 2-[(3-chloro-2-methylphenyl)amino]-3-pryridinecarboxylic acid]	579.67	dose dependent increase	0	0	0	0	0	0	0	0	0	0	0	0	0	0	0	0	150.41 ± 25.49	dose-dependent increase	antiallodynic effect (in words) ([1]; administered individually): moderate antiallodynic effect; effect on neuropathic pain (maximum found) (neuropathic pain): up to 30%; antiallodynic effect (in words) ([4]; administered individually, diabetic neuropathy model): moderate antiallodynic effect; DE30 (effective dose that provides an analgesic effect of 30%) ([4]; diabetic neuropathy model, listed as Lysine Clonixinate): 150.41 mg/kg
